This is an account of results in the supplement of paper PMC10307832.

Common to all, as to test: relative viability (nuclei count vs DMSO), 5 days (fraction); higher = more cells survive
Compound in the experiment “Tivantinib + Tozasertib”: O=C1NC(=O)[C@@H](c2cn3c4c(cccc24)CCC3)[C@@H]1c1c[nH]c2ccccc12 [Tivantinib] + Cc1cc(Nc2cc(N3CCN(C)CC3)nc(Sc3ccc(NC(=O)C4CC4)cc3)n2)n[nH]1 [Tozasertib] (partner 0.1 µM)
In outline:
(§1)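 Each reported value is a median over duplicate plates. It expresses relative viability: treated-well nuclei count divided by vehicle-well nuclei count. Lung cancer cell lines in 1536-well plates were dosed by pin tool a day after seeding, alone with one drug or with a fixed anchor-drug dose plus five library-drug doses (not always all listed) in √10 steps, and nuclei were counted after 5 days.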

Compound in the experiment “Tivantinib + Olaparib”: O=C1NC(=O)[C@@H](c2cn3c4c(cccc24)CCC3)[C@@H]1c1c[nH]c2ccccc12 [Tivantinib] + O=C(c1cc(Cc2n[nH]c(=O)c3ccccc23)ccc1F)N1CCN(C(=O)C2CC2)CC1 [Olaparib] (partner 8 µM)
The essentials:
as §1

Compound in the experiment “Crenolanib + Pictilisib”: CC1(COc2ccc3c(c2)ncn3-c2ccc3cccc(N4CCC(N)CC4)c3n2)COC1 [Crenolanib] + CS(=O)(=O)N1CCN(Cc2cc3nc(-c4cccc5[nH]ncc45)nc(N4CCOCC4)c3s2)CC1 [Pictilisib] (partner 1 µM)
In outline: as §1

Compound in the experiment “Crenolanib + Foretinib”: CC1(COc2ccc3c(c2)ncn3-c2ccc3cccc(N4CCC(N)CC4)c3n2)COC1 [Crenolanib] + COc1cc2c(Oc3ccc(NC(=O)C4(C(=O)Nc5ccc(F)cc5)CC4)cc3F)ccnc2cc1OCCCN1CCOCC1 [Foretinib] (partner 0.25 µM)
The essentials:
as §1

On to NCI-H2009, for which the relative viability was determined as 0.734 with Tivantinib + Tozasertib (first compound 0.01 µM); 0.696 with Tivantinib + Tozasertib (first compound 0.03162 µM); 0.755 with Tivantinib + Tozasertib (first compound 0.1 µM); 0.651 in the experiment with Tivantinib + Tozasertib (first compound 0.3162 µM); 0.714 with Tivantinib + Olaparib (first compound 0.01 µM); 0.674 in the experiment with Tivantinib + Olaparib (first compound 0.03162 µM). The relative viability in the experiment with Tivantinib + Olaparib (first compound 0.1 µM) amounted to 0.746; with Tivantinib + Olaparib (first compound 0.3162 µM), 0.643; with Crenolanib + Pictilisib (first compound 0.01 µM), 0.854; with Crenolanib + Pictilisib (first compound 0.03162 µM), 0.803; with Crenolanib + Pictilisib (first compound 0.1 µM), 0.738; in the experiment with Crenolanib + Pictilisib (first compound 0.3162 µM) it was 0.708. The relative viability in the experiment with Crenolanib + Pictilisib (first compound 1 µM) worked out at 0.532; with Crenolanib + Foretinib (first compound 0.01 µM), 1.25; in the experiment with Crenolanib + Foretinib (first compound 0.03162 µM) it was 1.21; in the experiment with Crenolanib + Foretinib (first compound 0.1 µM), 1.09; with Crenolanib + Foretinib (first compound 0.3162 µM), 1.27; in the experiment with Crenolanib + Foretinib (first compound 1 µM) it was 1.1.
NCI-H1755: the relative viability was found to be 0.525 in the experiment with Tivantinib + Tozasertib (first compound 0.01 µM); 0.602 in the experiment with Tivantinib + Tozasertib (first compound 0.03162 µM); 0.507 in the experiment with Tivantinib + Tozasertib (first compound 0.1 µM); 0.608 with Tivantinib + Tozasertib (first compound 0.3162 µM); 0.9 with Tivantinib + Olaparib (first compound 0.01 µM); 0.85 with Tivantinib + Olaparib (first compound 0.03162 µM). In addition, the relative viability worked out at 0.848 in the experiment with Tivantinib + Olaparib (first compound 0.1 µM); 0.898 with Tivantinib + Olaparib (first compound 0.3162 µM); 0.423 in the experiment with Crenolanib + Pictilisib (first compound 0.01 µM); 0.408 with Crenolanib + Pictilisib (first compound 0.03162 µM); 0.397 with Crenolanib + Pictilisib (first compound 0.1 µM); 0.399 with Crenolanib + Pictilisib (first compound 0.3162 µM). Besides, the relative viability with Crenolanib + Pictilisib (first compound 1 µM) worked out at 0.393; in the experiment with Crenolanib + Foretinib (first compound 0.01 µM), 0.944; with Crenolanib + Foretinib (first compound 0.03162 µM), 0.905; with Crenolanib + Foretinib (first compound 0.1 µM), 0.889; with Crenolanib + Foretinib (first compound 0.3162 µM) it was 0.937; with Crenolanib + Foretinib (first compound 1 µM) it was 0.908.
Regarding LU99A, the relative viability with Tivantinib + Tozasertib (first compound 0.01 µM) was determined as 0.261; in the experiment with Tivantinib + Tozasertib (first compound 0.03162 µM) it was 0.276; in the experiment with Tivantinib + Tozasertib (first compound 0.1 µM), 0.266; with Tivantinib + Tozasertib (first compound 0.3162 µM), 0.291; in the experiment with Tivantinib + Olaparib (first compound 0.01 µM), 0.272; in the experiment with Tivantinib + Olaparib (first compound 0.03162 µM), 0.267. Further, the relative viability amounted to 0.251 with Tivantinib + Olaparib (first compound 0.1 µM); 0.254 with Tivantinib + Olaparib (first compound 0.3162 µM); 0.37 with Crenolanib + Pictilisib (first compound 0.01 µM); 0.324 with Crenolanib + Pictilisib (first compound 0.03162 µM); 0.325 with Crenolanib + Pictilisib (first compound 0.1 µM); 0.393 in the experiment with Crenolanib + Pictilisib (first compound 0.3162 µM). In addition, the relative viability with Crenolanib + Pictilisib (first compound 1 µM) was 0.287; with Crenolanib + Foretinib (first compound 0.01 µM), 0.747; with Crenolanib + Foretinib (first compound 0.03162 µM), 0.867; in the experiment with Crenolanib + Foretinib (first compound 0.1 µM), 0.867; with Crenolanib + Foretinib (first compound 0.3162 µM), 0.879; in the experiment with Crenolanib + Foretinib (first compound 1 µM), 0.897.
As to ChaGo-K-1, the relative viability in the experiment with Tivantinib + Tozasertib (first compound 0.01 µM) is 0.205; with Tivantinib + Tozasertib (first compound 0.03162 µM), 0.219; with Tivantinib + Tozasertib (first compound 0.1 µM), 0.218; in the experiment with Tivantinib + Tozasertib (first compound 0.3162 µM) it was 0.218; with Tivantinib + Olaparib (first compound 0.01 µM), 0.401; with Tivantinib + Olaparib (first compound 0.03162 µM), 0.41. Also, the relative viability in the experiment with Tivantinib + Olaparib (first compound 0.1 µM) turned out to be 0.409; with Tivantinib + Olaparib (first compound 0.3162 µM) it was 0.398; with Crenolanib + Pictilisib (first compound 0.01 µM) it was 0.419; with Crenolanib + Pictilisib (first compound 0.03162 µM), 0.627; with Crenolanib + Pictilisib (first compound 0.1 µM), 0.736; in the experiment with Crenolanib + Pictilisib (first compound 0.3162 µM), 0.562. The relative viability was determined as 0.7 with Crenolanib + Pictilisib (first compound 1 µM); 0.952 with Crenolanib + Foretinib (first compound 0.01 µM); 0.942 with Crenolanib + Foretinib (first compound 0.03162 µM); 0.922 with Crenolanib + Foretinib (first compound 0.1 µM); 0.894 in the experiment with Crenolanib + Foretinib (first compound 0.3162 µM); 0.84 in the experiment with Crenolanib + Foretinib (first compound 1 µM).
As to NCI-H23, the relative viability with Tivantinib + Tozasertib (first compound 0.01 µM) stood at 0.447; with Tivantinib + Tozasertib (first compound 0.03162 µM), 0.359; with Tivantinib + Tozasertib (first compound 0.1 µM), 0.423; with Tivantinib + Tozasertib (first compound 0.3162 µM), 0.308; with Tivantinib + Olaparib (first compound 0.01 µM) it was 0.357; with Tivantinib + Olaparib (first compound 0.03162 µM), 0.335. The relative viability in the experiment with Tivantinib + Olaparib (first compound 0.1 µM) came to 0.387; with Tivantinib + Olaparib (first compound 0.3162 µM), 0.348; in the experiment with Crenolanib + Pictilisib (first compound 0.01 µM) it was 0.482; in the experiment with Crenolanib + Pictilisib (first compound 0.03162 µM), 0.484; with Crenolanib + Pictilisib (first compound 0.1 µM) it was 0.399; with Crenolanib + Pictilisib (first compound 0.3162 µM), 0.487. Besides, the relative viability with Crenolanib + Pictilisib (first compound 1 µM) amounted to 0.351; with Crenolanib + Foretinib (first compound 0.01 µM) it was 1.12; with Crenolanib + Foretinib (first compound 0.03162 µM), 1.13; in the experiment with Crenolanib + Foretinib (first compound 0.1 µM), 0.97; with Crenolanib + Foretinib (first compound 0.3162 µM), 0.995; in the experiment with Crenolanib + Foretinib (first compound 1 µM), 1.06.
PC-3 [JPC-3]: the relative viability in the experiment with Tivantinib + Tozasertib (first compound 0.01 µM) is 0.877; in the experiment with Tivantinib + Tozasertib (first compound 0.03162 µM), 0.902; with Tivantinib + Tozasertib (first compound 0.1 µM) it was 0.945; with Tivantinib + Tozasertib (first compound 0.3162 µM), 0.705; with Tivantinib + Olaparib (first compound 0.01 µM), 1.09; in the experiment with Tivantinib + Olaparib (first compound 0.03162 µM), 1.12. Further, the relative viability with Tivantinib + Olaparib (first compound 0.1 µM) was 1.11; with Tivantinib + Olaparib (first compound 0.3162 µM), 0.662; with Crenolanib + Pictilisib (first compound 0.01 µM), 0.736; with Crenolanib + Pictilisib (first compound 0.03162 µM) it was 0.635; in the experiment with Crenolanib + Pictilisib (first compound 0.1 µM), 0.746; with Crenolanib + Pictilisib (first compound 0.3162 µM) it was 0.695. In addition, the relative viability was 0.703 in the experiment with Crenolanib + Pictilisib (first compound 1 µM); 1.16 in the experiment with Crenolanib + Foretinib (first compound 0.01 µM); 1.12 with Crenolanib + Foretinib (first compound 0.03162 µM); 0.955 with Crenolanib + Foretinib (first compound 0.1 µM); 1.05 in the experiment with Crenolanib + Foretinib (first compound 0.3162 µM); 1.03 with Crenolanib + Foretinib (first compound 1 µM).
Turning to NCI-H520, the relative viability with Tivantinib + Tozasertib (first compound 0.01 µM) was 0.471; with Tivantinib + Tozasertib (first compound 0.03162 µM), 0.494; with Tivantinib + Tozasertib (first compound 0.1 µM) it was 0.395; with Tivantinib + Tozasertib (first compound 0.3162 µM) it was 0.434; with Tivantinib + Olaparib (first compound 0.01 µM) it was 0.347; with Tivantinib + Olaparib (first compound 0.03162 µM), 0.339. Moreover, the relative viability in the experiment with Tivantinib + Olaparib (first compound 0.1 µM) was determined as 0.291; in the experiment with Tivantinib + Olaparib (first compound 0.3162 µM) it was 0.37; in the experiment with Crenolanib + Pictilisib (first compound 0.01 µM), 0.267; in the experiment with Crenolanib + Pictilisib (first compound 0.03162 µM), 0.324; with Crenolanib + Pictilisib (first compound 0.1 µM), 0.326; in the experiment with Crenolanib + Pictilisib (first compound 0.3162 µM), 0.295. In addition, the relative viability with Crenolanib + Pictilisib (first compound 1 µM) was 0.301; with Crenolanib + Foretinib (first compound 0.01 µM), 0.671; with Crenolanib + Foretinib (first compound 0.03162 µM) it was 0.89; with Crenolanib + Foretinib (first compound 0.1 µM), 0.651; with Crenolanib + Foretinib (first compound 0.3162 µM), 0.724; in the experiment with Crenolanib + Foretinib (first compound 1 µM) it was 0.746.
